6 compounds from ChEMBL document CHEMBL6182867, “Discovery of ultra short β-peptoids with selective activity against drug-resistant Mycobacterium tuberculosis” (Eur J Med Chem, 2025) can be followed below.

Each structure is given as a SMILES string.

What all share (format): functional
The test system of experiment [1] is Mycobacterium tuberculosis. The experiment can be described thus: Antitubercular activity against rifampin-resistant Mycobacterium tuberculosis H37Rv by microplate alamar blue assay.
Experiment [2] has as its system Mycobacterium tuberculosis. The experiment can be described thus: Antitubercular activity against isoniazid-resistant Mycobacterium tuberculosis H37Rv by microplate alamar blue assay. A general note: The colour change of resazurin is a common sign of viable cells or microbes.
Experiment [3] deals with Mycobacterium tuberculosis. The experiment can be described thus: Antitubercular activity against Mycobacterium tuberculosis H37Rv harboring LuxABCDE assessed as reduction in luminescence supplemented with fresh medium containing compound on day 2 and 5 by luminescence assay. The note with it: 120 h, time 5 day.
The test system of experiment [4] is Mycobacterium tuberculosis. Briefly: Synergistic antitubercular activity against Mycobacterium tuberculosis bedaquiline-resistant mutant 7 assessed as bedaquiline MIC=>90 at 0.4 ug/ml by microplate alamar blue assay (reference value: 0.9 uM). The note with it: dose 0.4 µg/ml.
For experiment [5], the system named is Mycobacterium tuberculosis. Briefly: Synergistic antitubercular activity against Mycobacterium tuberculosis bedaquiline-resistant mutant H15 assessed as bedaquiline MIC=>90 at 0.4 ug/ml by microplate alamar blue assay (Rvb >2 uM). The note with it: dose 0.4 µg/ml.
Experiment [6] deals with Mycobacterium tuberculosis. The experiment can be described thus: Synergistic antitubercular activity against Mycobacterium tuberculosis bedaquiline-resistant mutant H15 assessed as bedaquiline growth inhibition at 0.4 ug/ml by microplate alamar blue assay (reference value: 75%). The note with it: dose 0.4 µg/ml.
The subject of experiment [7] is Mycobacterium tuberculosis. Briefly: Synergistic antitubercular activity against Mycobacterium tuberculosis rifampin-resistant mutant assessed as rifampin MIC=>90 at 0.4 ug/ml by microplate alamar blue assay (Rvb >1 uM). The note with it: dose 0.4 µg/ml.
The subject of experiment [8] is Mycobacterium tuberculosis. Briefly: Synergistic antitubercular activity against Mycobacterium tuberculosis rifampin-resistant mutant assessed as rifampin growth inhibition at 0.4 ug/ml by microplate alamar blue assay (reference value: 46%). The note with it: dose 0.4 µg/ml.
In experiment [9] the test system is Mycobacterium tuberculosis. The experiment can be described thus: Synergistic antitubercular activity against Mycobacterium tuberculosis isoniazid-resistant mutant assessed as isoniazid MIC=>90 at 0.4 ug/ml by microplate alamar blue assay (Rvb >8 uM). The note with it: dose 0.4 µg/ml.
The test system of experiment [10] is Mycobacterium tuberculosis. The experiment can be described thus: Synergistic antitubercular activity against Mycobacterium tuberculosis isoniazid-resistant mutant assessed as isoniazid growth inhibition at 0.4 ug/ml by microplate alamar blue assay (reference value: 0%). The note with it: dose 0.4 µg/ml.
Experiment [11] deals with Mycobacterium tuberculosis. Briefly: Synergistic antitubercular activity against Mycobacterium tuberculosis bedaquiline-resistant mutant 7 assessed as bedaquiline MIC=>90 at 0.8 ug/ml by microplate alamar blue assay (Rvb >2 uM). The note with it: dose 0.8 µg/ml.
The test system of experiment [12] is Mycobacterium tuberculosis. Briefly: Synergistic antitubercular activity against Mycobacterium tuberculosis bedaquiline-resistant mutant H15 assessed as bedaquiline MIC=>90 at 0.8 ug/ml by microplate alamar blue assay (Rvb >2 uM). The note with it: dose 0.8 µg/ml.
Experiment [13] deals with Mycobacterium tuberculosis. The experiment can be described thus: Synergistic antitubercular activity against Mycobacterium tuberculosis bedaquiline-resistant mutant H15 assessed as bedaquiline growth inhibition at 0.8 ug/ml by microplate alamar blue assay (reference value: 75%). The note with it: dose 0.8 µg/ml.
The test system of experiment [14] is Mycobacterium tuberculosis. Briefly: Synergistic antitubercular activity against Mycobacterium tuberculosis rifampin-resistant mutant assessed as rifampin MIC=>90 at 0.8 ug/ml by microplate alamar blue assay (Rvb >1 uM). The note with it: dose 0.8 µg/ml.
The test system of experiment [15] is Mycobacterium tuberculosis. The experiment can be described thus: Synergistic antitubercular activity against Mycobacterium tuberculosis rifampin-resistant mutant assessed as rifampin growth inhibition at 0.8 ug/ml by microplate alamar blue assay (reference value: 46%). The note with it: dose 0.8 µg/ml.
The test system of experiment [16] is Mycobacterium tuberculosis. The experiment can be described thus: Synergistic antitubercular activity against Mycobacterium tuberculosis isoniazid-resistant mutant assessed as isoniazid MIC=>90 at 0.8 ug/ml by microplate alamar blue assay (Rvb >8 uM). The note with it: dose 0.8 µg/ml.
Experiment [17] concerns Mycobacterium tuberculosis. Briefly: Synergistic antitubercular activity against Mycobacterium tuberculosis isoniazid-resistant mutant assessed as isoniazid growth inhibition at 0.8 ug/ml by microplate alamar blue assay (reference value: 0%). The note with it: dose 0.8 µg/ml.

In the case of `CC(C)N(C(=O)CCNCCCC1CCCC1)C(C)C`, the MIC90 in [1] came to 1.78 µg/mL; in experiment [2], 1.87 µg/mL. Besides, the EC90 in experiment [3] worked out at 9.67 µg/mL. Also, the minimum inhibitory concentration (MIC) in experiment [4] was 0.91 µM; in experiment [5] it was greater than 2 µM; in experiment [7], greater than 1 µM; in experiment [9] it was greater than 8 µM. Besides, the “growth inhibition (GI)” value is on record as 72% in experiment [6], 47% in experiment [8] and 0% in experiment [10].
On to `COc1nc2ccc(Br)cc2cc1[C@@H](c1ccccc1)[C@@](O)(CCN(C)C)c1cccc2ccccc12` [BEDAQUILINE], for which, in experiment [3], the EC90 worked out at 360 nM.
`CC(=O)NC[C@H]1CN(c2ccc(N3CCOCC3)c(F)c2)C(=O)O1` [LINEZOLID]: the MIC90 turned out to be 1.14 µM in experiment [1] and 0.94 µM in [2].
For `CO[C@H]1/C=C/O[C@@]2(C)Oc3c(C)c(O)c4c(O)c(c(/C=N/N5CCN(C)CC5)c(O)c4c3C2=O)NC(=O)/C(C)=C\C=C\[C@H](C)[C@H](O)[C@@H](C)[C@@H](O)[C@@H](C)[C@H](OC(C)=O)[C@@H]1C` [RIFAMPIN], in that order: greater than 1 µM and 0.03 µM.
As for `CC(C)N(C(=O)CCNCCC(c1ccccc1)c1ccccc1)C(C)C`, the MIC90 in experiment [1] was found to be 3.32 µg/mL; in [2] it was 3.01 µg/mL. The EC90 in experiment [3] turned out to be 9.93 µg/mL. The MIC in experiment [11] is 0.53 µM; in [12], greater than 2 µM; in [14] it was greater than 1 µM; in experiment [16], greater than 8 µM. Moreover, the “growth inhibition (GI)” value was 76% in [13], 60% in experiment [15] and 17% in [17].
As to `NNC(=O)c1ccncc1` [ISONIAZID], the MIC90 is 0.32 µM in experiment [1] and greater than 8 µM in experiment [2].

By MIC90 is commonly meant the lowest concentration that inhibits either 90% of growth or 90% of the strains tested, depending on the study. As usually defined, the EC90 is the concentration at which the effect reaches the 90% level. As a reminder, the MIC is the least concentration at which growth counts as inhibited.
